Experimental data published in patent US20240254143A1, “OREXIN RECEPTOR AGONISTS AND USES THEREOF” (JAZZ PHARMACEUTICALS IRELAND LIMITED, priority 2021, published 2024).

molecular target: T1, human recombinant OX2 (hOX2) receptor (Homo sapiens, UniProt O43614); assay: IP-1 accumulation assay (IP-One HTRF) in hOX2-CHO cells; assay type: cell-based; conditions: 60 min at 37° C., mean of at least two independent experiments, read-out: EC50_OX2R Category
T1 construct: host or cells: CHO cells
T1 sequence (O43614 1-444): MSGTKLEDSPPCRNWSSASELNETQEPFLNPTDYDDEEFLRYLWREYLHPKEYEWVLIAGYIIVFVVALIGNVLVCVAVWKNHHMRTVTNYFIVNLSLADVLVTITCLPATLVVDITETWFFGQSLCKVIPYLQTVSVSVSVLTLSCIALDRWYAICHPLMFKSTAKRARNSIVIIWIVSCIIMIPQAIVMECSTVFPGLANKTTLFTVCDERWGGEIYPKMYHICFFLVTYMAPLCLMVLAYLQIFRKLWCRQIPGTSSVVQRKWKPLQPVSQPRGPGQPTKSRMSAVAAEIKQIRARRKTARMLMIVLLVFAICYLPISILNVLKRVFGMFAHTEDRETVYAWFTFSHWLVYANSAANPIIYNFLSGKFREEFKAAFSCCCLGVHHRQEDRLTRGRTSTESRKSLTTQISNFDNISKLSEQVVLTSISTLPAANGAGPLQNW
Protocol: Example 94: IP-1 Accumulation Assay
The accumulation of Inositol-1 Monophosphate (IP-1) was measured using IP-One HTRF® Terbium cryptate based assay (Cisbio) in human recombinant OX1 (hOX1) and at OX2 (hOX2) receptors expressed in CHO cells (DiscoverX) according to the manufacturer's instructions for cells tested in suspension.
hOX1-CHO and hOX2-CHO cells were seeded into white 384-well plates at a density of 20,000 cells/well in Hank's Balanced Salt Solution (HBSS) containing 20 mM HEPES pH 7.4, 50 mM, LiCl and 0.1% and Bovine Serum Albumin (BSA).
Compounds of the present disclosure were tested in a 11 points concentration response curve (CRC) serially diluted in neat DMSO at 200 fold concentrations and added by Echo acoustic liquid handling (Labcyte) to the cells (0.5% DMSO final in the assay). After 60 min of incubation at 37° C. detection reagents, IP1-d2 tracer and anti-IP1-cryptate were diluted in lysis buffer according to the manufacturer's descriptions and added to the cells.
Following 60 mi incubation at room temperature, time-resolved fluorescence (HTRF) was measured at 615 nm and 665 nm by Envision Multilabel reader (Perkin Elmer) and the HTRF ratio (A665/A615×10^4) was calculated.
The IP-1 accumulation response was expressed as percentage of the maximal OX-A response.
Curve fitting and EC50 estimations were carried out using a four-parameter logistic model using XLfit Software. Mean data of EC50 are calculated from at least two independent experiments performed in duplicates.

**Q.** `COC(=O)N1CCCC2(CCC(=O)N2)C1Cc1cccc(-c2ccccc2)c1` (mixture of isomers) [Example 28, Methyl 6-({[1,1′-biphenyl]-3-yl}methyl)-2-oxo-1,7-diazaspiro[4.5]decane-7-carboxylate] was tested. Which EC50 did it give?
**A.** Its EC50 is over 10000 nM.

**Q.** With `CCNC(=O)N1CCCC2(COCC(=O)N2)C1CO[C@H]1CC[C@@H](c2ccccc2)CC1` (mixture of isomers) [Example 1, (CIS)-N-ethyl-2-oxo-7-({[(CIS)-4-phenylcyclohexyl]oxy}methyl)-4-oxa-1,8-diazaspiro[5.5]undecane-8-carboxamide] as the compound, how does the EC50 read?
**A.** Its EC50 is under 100 nM.

**Q.** With `COC(=O)N1CCCC2(COCC(=O)N2)C1CO[C@H]1CC[C@@H](c2ccccc2)CC1` (mixture of isomers) [Example 4, Methyl (CIS)-2-oxo-7-({[(CIS)-4-phenylcyclohexyl]oxy}methyl)-4-oxa-1,8-diazaspiro[5.5]undecane-8-carboxylate] as the compound, how does the EC50 read?
**A.** The EC50 was 1000 to 10000 nM.

**Q.** `O=C1COCC2(CCCN(C(=O)C3CC3)C2CO[C@H]2CC[C@@H](c3ccccc3)CC2)N1` (mixture of isomers) [Example 7, (CIS)-8-cyclopropanecarbonyl-7-({[(CIS)-4-phenylcyclohexyl]oxy}methyl)-4-oxa-1,8-diazaspiro[5.5]undecan-2-one] was tested. Which EC50 did it give?
**A.** Its EC50 is 100 to 1000 nM.

**Q.** Which EC50 does the source give for `CCNC(=O)N1CCCC2(COC(=O)N2)C1CO[C@H]1CC[C@@H](c2ccccc2)CC1` (mixture of isomers) [Example 10] here?
**A.** Its EC50 is 1000 to 10000 nM.

**Q.** `CCNC(=O)N1CCC2(COCC(=O)N2)C1CO[C@H]1CC[C@@H](c2ccccc2)CC1` (mixture of isomers) [Example 15, (CIS)-N-ethyl-7-oxo-1-({[(CIS)-4-phenylcyclohexyl]oxy}methyl)-9-oxa-2,6-diazaspiro[4.5]decane-2-carboxamide] was tested. Which EC50 did it give?
**A.** Its EC50 is 1000 to 10000 nM.

**Q.** With `CCNC(=O)N1CCC2(COC(=O)N2)C1CO[C@H]1CC[C@@H](c2ccccc2)CC1` (mixture of isomers) [Example 18, (CIS)-N-ethyl-2-oxo-6-({[(CIS)-4-phenylcyclohexyl]oxy}methyl)-3-oxa-1,7-diazaspiro[4.4]nonane-7-carboxamide] as the compound, how does the EC50 read?
**A.** The EC50 was over 10000 nM.

**Q.** How did the EC50 turn out when `CCNC(=O)N1CCC[C@@]2(CCOC(=O)N2)[C@@H]1Cc1cccc(-c2ccccc2)c1` (racemic) [Example 24, (CIS)-7-({[1,1′-biphenyl]-3-yl}methyl)-N-ethyl-2-oxo-3-oxa-1,8-diazaspiro[5.5]undecane-8-carboxamide] was run?
**A.** Its EC50 is 1000 to 10000 nM.

**Q.** Which EC50 does the source give for `CCNC(=O)N1CCC[C@@]2(CCOC(=O)N2)[C@H]1Cc1cccc(-c2ccccc2)c1` (racemic) [Example 25, (Trans)-7-({[1,1′-biphenyl]-3-yl}methyl)-N-ethyl-2-oxo-3-oxa-1,8-diazaspiro[5.5]undecane-8-carboxamide] here?
**A.** The EC50 was over 10000 nM.

**Q.** For `CCNC(=O)N1CCC[C@@]2(CNS(=O)(=O)N2)[C@@H]1Cc1cccc(-c2ccccc2)c1` (racemic) [Example 30, (CIS)-6-({[1,1′-biphenyl]-3-yl}methyl)-N-ethyl-2,2-dioxo-2λ^6-thia-1,3,7-triazaspiro[4.5]decane-7-carboxamide], which EC50 is on record?
**A.** The EC50 was over 10000 nM.

**Q.** For `CCNC(=O)N1CCCC2(CCCC(=O)N2)C1CO[C@H]1CC[C@@H](c2ccccc2)CC1` (mixture of isomers) [Example 33, rel-(6S,7R)-N-ethyl-2-oxo-7-({[(CIS)-4-phenylcyclohexyl]oxy}methyl)-1,8-diazaspiro[5.5]undecane-8-carboxamide], which EC50 is on record?
**A.** The EC50 was under 100 nM.

**Q.** For `CCNC(=O)N1CCCC2(COCS(=O)(=O)N2)C1CO[C@H]1CC[C@@H](c2ccccc2)CC1` (mixture of isomers) [Example 36, rel-(6S,7R)-N-ethyl-2,2-dioxo-7-({[(CIS)-4-phenylcyclohexyl]oxy}methyl)-4-oxa-2λ^6-thia-1,8-diazaspiro[5.5] undecane-8-carboxamide], which EC50 is on record?
**A.** The EC50 was 100 to 1000 nM.

**Q.** `CCNC(=O)N1CCCC2(CCCS(=O)(=O)N2)C1CO[C@H]1CC[C@@H](c2ccccc2)CC1` (mixture of isomers) [Example 37, rel-(6R,7R)-N-ethyl-2,2-dioxo-7-({[(CIS)-4-phenylcyclohexyl]oxy}methyl)-2λ^6-thia-1,8-diazaspiro[5.5] undecane-8-carboxamide] was tested. Which EC50 did it give?
**A.** Its EC50 is 100 to 1000 nM.

**Q.** For `CCNC(=O)N1CCCC2(COCCS(=O)(=O)N2)C1CO[C@H]1CC[C@@H](c2ccccc2)CC1` (mixture of isomers) [Example 38, rel-(1R,6S)-N-ethyl-8,8-dioxo-1-({[(CIS)-4-phenylcyclohexyl]oxy}methyl)-11-oxa-8λ^6-thia-2,7-diazaspiro[5.6]dodecane-2-carboxamide], which EC50 is on record?
**A.** The EC50 was 100 to 1000 nM.

**Q.** Which EC50 does the source give for `CN1CC(=O)NC2(CCCN(C(=O)OCC(F)F)C2CO[C@H]2CC[C@@H](c3ccccc3)CC2)C1` (mixture of isomers) [Example 56, 2,2-difluoroethyl-rel-(6R,7R)-4-methyl-2-oxo-7-({[(CIS)-4-phenylcyclohexyl]oxy}methyl)-1,4,8-triazaspiro [5.5]undecane-8-carboxylate] here?
**A.** Its EC50 is 100 to 1000 nM.

**Q.** Which EC50 does the source give for `CN1CCC2(CCCN(C(=O)OCC(F)F)C2CO[C@H]2CC[C@@H](c3ccccc3)CC2)NC1=O` (mixture of isomers) [Example 57, 2,2-difluoroethyl-rel-(6R,7R)-3-methyl-2-oxo-7-({[(CIS)-4-phenylcyclohexyl]oxy}methyl)-1,3,8-triazaspiro [5.5]undecane-8-carboxylate] here?
**A.** The EC50 was over 10000 nM.

**Q.** `O=C1NC2(CCCN(C(=O)OCC(F)F)C2CO[C@H]2CC[C@@H](c3ccccc3)CC2)CCO1` (mixture of isomers) [Example 65, 2,2-difluoroethyl-rel-(6R,7R)-2-oxo-7-({[(CIS)-4-phenylcyclohexyl]oxy}methyl)-3-oxa-1,8-diazaspiro[5.5] undecane-8-carboxylate] was tested. Which EC50 did it give?
**A.** Its EC50 is 100 to 1000 nM.

**Q.** For `O=C1NC2(CCCN(CC(F)(F)F)C2CO[C@H]2CC[C@@H](c3ccccc3)CC2)CCO1` (mixture of isomers) [Example 68, rel-(6R,7R)-7-({[(CIS)-4-phenylcyclohexyl]oxy}methyl)-8-(2,2,2-trifluoroethyl)-3-oxa-1,8-diazaspiro[5.5] undecan-2-one], which EC50 is on record?
**A.** The EC50 was over 10000 nM.

**Q.** For `CCNC(=O)N1C[C@@H](C)C2(COCC(=O)N2)C1Cc1cccc(-c2cc(F)cc(F)c2)c1F` (mixture of isomers) [Example 70, rel-(1S,5S)-(4S)-N-ethyl-4-methyl-7-oxo-1-({2,3′,5′-trifluoro-[1,1′-biphenyl]-3-yl}methyl)-9-oxa-2,6-diazaspiro[4.5]decane-2-carboxamide], which EC50 is on record?
**A.** Its EC50 is 1000 to 10000 nM.

**Q.** With `O=C1COCC2(CCN(C(=O)[C@H]3C[C@@H](F)C3)C2Cc2cccc(-c3cc(F)cc(F)c3)c2F)N1` (mixture of isomers) [Example 71, rel-(1S,5S)-2-[(1s,3s)-3-fluorocyclobutanecarbonyl]-1-({2,3′,5′-trifluoro-[1,1′-biphenyl]-3-yl}methyl)-9-oxa-2,6-diazaspiro[4.5]decan-7-one] as the compound, how does the EC50 read?
**A.** Its EC50 is 100 to 1000 nM.

**Q.** Which EC50 does the source give for `CCNC(=O)N1CCCC2(COCC(=O)N2)C1COC1CCN(c2ncc(F)cn2)CC1` (racemic) [Example 76, rel-(6S,7R)-N-ethyl-7-({[1-(5-fluoropyrimidin-2-yl)piperidin-4-yl]oxy}methyl)-2-oxo-4-oxa-1,8-diazaspiro[5.5]undecane-8-carboxamide] here?
**A.** Its EC50 is 100 to 1000 nM.

**Q.** Which EC50 does the source give for `O=C1COCC2(CCCN(C(=O)OCC(F)F)C2COC2CCN(c3ncc(F)cn3)CC2)N1` (racemic) [Example 77, 2,2-difluoroethyl-rel-(6S,7R)-7-({[1-(5-fluoropyrimidin-2-yl)piperidin-4-yl]oxy}methyl)-2-oxo-4-oxa-1,8-diazaspiro[5.5]undecane-8-carboxylate] here?
**A.** The EC50 was 1000 to 10000 nM.
